Patent US8883749B2, “Transcription factor inhibitors and related compositions, formulations and methods” (The Ohio State University, priority 2009, dated 2014)
Like-named read-outs stand apart in the source and are kept apart here.

Tests used:
[1] = molecular target: T1, Erb B2/H ER2 (Homo sapiens, UniProt P04626); experiment: Kinase profiler assay; assay type: biochemical; settings: 10 concentrations, 100 μM highest
T1 construct: purchased Millipore UK Limited (Dundee, UK) or Reaction Biology Corp. (Malvern, Pa.)
T1 sequence (P04626 23-1255): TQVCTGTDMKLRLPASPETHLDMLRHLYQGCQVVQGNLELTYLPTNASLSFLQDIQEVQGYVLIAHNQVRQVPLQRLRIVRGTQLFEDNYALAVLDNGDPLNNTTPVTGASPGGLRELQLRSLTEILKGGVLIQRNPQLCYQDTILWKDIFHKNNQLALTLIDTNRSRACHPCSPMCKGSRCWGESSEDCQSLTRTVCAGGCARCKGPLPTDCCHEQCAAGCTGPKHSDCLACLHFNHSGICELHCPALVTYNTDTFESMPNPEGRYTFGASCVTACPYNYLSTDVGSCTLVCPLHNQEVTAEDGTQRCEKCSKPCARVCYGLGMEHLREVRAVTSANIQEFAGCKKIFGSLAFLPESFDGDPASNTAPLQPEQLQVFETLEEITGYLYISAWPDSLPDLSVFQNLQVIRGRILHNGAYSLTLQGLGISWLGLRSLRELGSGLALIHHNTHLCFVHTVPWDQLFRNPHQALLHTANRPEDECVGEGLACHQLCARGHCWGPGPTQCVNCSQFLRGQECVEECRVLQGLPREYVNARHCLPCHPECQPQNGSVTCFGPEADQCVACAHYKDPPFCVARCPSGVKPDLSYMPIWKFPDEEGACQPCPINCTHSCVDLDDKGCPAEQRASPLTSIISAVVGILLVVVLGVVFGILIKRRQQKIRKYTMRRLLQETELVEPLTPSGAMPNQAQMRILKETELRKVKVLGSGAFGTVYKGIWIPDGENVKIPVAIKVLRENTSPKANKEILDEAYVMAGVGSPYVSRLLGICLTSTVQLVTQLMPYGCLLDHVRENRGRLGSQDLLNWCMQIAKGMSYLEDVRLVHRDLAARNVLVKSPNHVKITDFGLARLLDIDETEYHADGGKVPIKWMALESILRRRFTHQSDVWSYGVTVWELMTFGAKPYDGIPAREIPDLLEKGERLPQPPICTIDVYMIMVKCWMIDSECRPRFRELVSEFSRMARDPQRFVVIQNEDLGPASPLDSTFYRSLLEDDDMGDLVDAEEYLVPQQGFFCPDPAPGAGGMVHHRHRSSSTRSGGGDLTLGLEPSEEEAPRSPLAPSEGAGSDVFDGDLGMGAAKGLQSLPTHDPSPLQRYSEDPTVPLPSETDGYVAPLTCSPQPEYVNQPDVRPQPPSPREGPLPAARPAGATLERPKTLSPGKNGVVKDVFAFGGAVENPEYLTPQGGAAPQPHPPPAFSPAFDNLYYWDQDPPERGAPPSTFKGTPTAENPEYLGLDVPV

[2] = molecular target: T2, P13K (P110a/85a) (Homo sapiens, UniProt P42336); experiment: Kinase profiler assay; assay type: biochemical; settings: 10 concentrations, 100 μM highest
T2 construct: purchased Millipore UK Limited (Dundee, UK) or Reaction Biology Corp. (Malvern, Pa.)

[3] = molecular target: T3, JAK2 (Homo sapiens, UniProt O60674); experiment: Kinase profiler assay; assay type: biochemical; settings: 10 concentrations, 100 μM highest
T3 construct: purchased Millipore UK Limited (Dundee, UK) or Reaction Biology Corp. (Malvern, Pa.)

[4] = system: MDA-MB-231 cells; experiment: Soft agar colony formation assay; assay type: cell-based, human; settings: LLL12 1 μM or 5 μM, two weeks
Protocol: A base 0.6% agar gel with 10% FBS in DMEM was prepared and added to the wells of a 6-well culture dish. […] The cells were maintained at 37° C. and allowed to grow for two weeks. The colonies were stained using MTT dye (100 μL per well). Pictures of the colonies were taken using a Leica MZ 16FA inverted microscope (Leica Microsystems) with a 7.4 Slider Camera (Diagnostic Instruments Inc.). The colonies were scored by counting and numbers were normalized as a percentage of colonies formed in DMSO.

[5] = molecular target: T4, Bmx (Homo sapiens, UniProt P51813); experiment: Kinase profiler assay; assay type: biochemical; settings: 10 concentrations, 100 μM highest
T4 construct: purchased Millipore UK Limited (Dundee, UK) or Reaction Biology Corp. (Malvern, Pa.)

[6] = molecular target: T5, P13K (P110b/85a) (Homo sapiens, UniProt P42338); experiment: Kinase profiler assay; assay type: biochemical; settings: 10 concentrations, 100 μM highest
T5 construct: purchased Millipore UK Limited (Dundee, UK) or Reaction Biology Corp. (Malvern, Pa.)
T5 sequence (P42338 whole entry, stated change not applied): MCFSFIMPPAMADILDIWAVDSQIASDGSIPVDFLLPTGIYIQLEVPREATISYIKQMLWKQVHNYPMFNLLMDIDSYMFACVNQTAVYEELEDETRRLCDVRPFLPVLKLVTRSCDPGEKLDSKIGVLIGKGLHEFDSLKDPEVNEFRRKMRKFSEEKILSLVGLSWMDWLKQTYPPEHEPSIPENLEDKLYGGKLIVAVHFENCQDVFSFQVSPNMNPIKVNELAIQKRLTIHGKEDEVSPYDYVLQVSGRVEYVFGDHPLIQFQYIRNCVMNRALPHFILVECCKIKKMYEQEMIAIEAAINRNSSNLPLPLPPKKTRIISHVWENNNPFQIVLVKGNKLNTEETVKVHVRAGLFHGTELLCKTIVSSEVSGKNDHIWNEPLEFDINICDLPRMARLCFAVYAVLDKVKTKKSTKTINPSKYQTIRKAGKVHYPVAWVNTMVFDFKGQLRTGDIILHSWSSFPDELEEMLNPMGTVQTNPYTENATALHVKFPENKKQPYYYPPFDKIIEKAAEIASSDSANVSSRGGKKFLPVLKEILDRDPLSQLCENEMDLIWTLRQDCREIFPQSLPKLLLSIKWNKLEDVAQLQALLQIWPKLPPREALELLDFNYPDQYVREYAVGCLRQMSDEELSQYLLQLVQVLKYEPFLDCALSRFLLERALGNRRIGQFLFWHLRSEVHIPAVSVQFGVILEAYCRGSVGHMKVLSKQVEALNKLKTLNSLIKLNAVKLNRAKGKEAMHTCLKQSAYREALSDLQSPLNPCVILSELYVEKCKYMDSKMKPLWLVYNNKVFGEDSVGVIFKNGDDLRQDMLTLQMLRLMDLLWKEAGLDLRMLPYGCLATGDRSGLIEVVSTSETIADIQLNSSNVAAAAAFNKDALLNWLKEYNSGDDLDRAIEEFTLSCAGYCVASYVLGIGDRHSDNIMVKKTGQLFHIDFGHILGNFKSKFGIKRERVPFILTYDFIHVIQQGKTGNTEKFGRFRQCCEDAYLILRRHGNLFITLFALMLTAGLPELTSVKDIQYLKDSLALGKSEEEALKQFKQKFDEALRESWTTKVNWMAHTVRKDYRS
T5 sequence (P27986 2-724 partner): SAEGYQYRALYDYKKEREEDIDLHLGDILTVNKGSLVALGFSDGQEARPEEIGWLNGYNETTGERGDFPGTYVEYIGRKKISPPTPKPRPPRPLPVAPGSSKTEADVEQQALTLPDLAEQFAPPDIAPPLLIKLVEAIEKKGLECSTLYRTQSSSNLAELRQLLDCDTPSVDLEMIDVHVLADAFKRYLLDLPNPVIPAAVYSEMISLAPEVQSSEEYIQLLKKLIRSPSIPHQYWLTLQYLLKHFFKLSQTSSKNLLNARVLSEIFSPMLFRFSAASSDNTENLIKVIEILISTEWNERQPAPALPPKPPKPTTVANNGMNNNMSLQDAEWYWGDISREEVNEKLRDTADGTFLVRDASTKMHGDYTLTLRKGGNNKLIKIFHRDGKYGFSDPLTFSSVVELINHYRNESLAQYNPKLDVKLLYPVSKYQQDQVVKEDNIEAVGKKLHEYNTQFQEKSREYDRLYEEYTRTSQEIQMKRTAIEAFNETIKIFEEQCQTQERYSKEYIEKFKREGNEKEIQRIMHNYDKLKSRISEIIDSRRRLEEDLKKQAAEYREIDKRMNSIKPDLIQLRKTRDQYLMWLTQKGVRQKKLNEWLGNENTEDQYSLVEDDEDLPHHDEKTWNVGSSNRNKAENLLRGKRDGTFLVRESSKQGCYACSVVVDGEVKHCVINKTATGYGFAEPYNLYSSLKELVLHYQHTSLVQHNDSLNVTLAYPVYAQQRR

[7] = molecular target: T6, CDK4/CyclinD1 (Homo sapiens, UniProt P11802); experiment: Kinase profiler assay; assay type: biochemical; settings: 10 concentrations, 100 μM highest
T6 construct: purchased Millipore UK Limited (Dundee, UK) or Reaction Biology Corp. (Malvern, Pa.)

[8] = molecular target: T7, Fes (Homo sapiens, UniProt P07332); experiment: Kinase profiler assay; assay type: biochemical; settings: 10 concentrations, 100 μM highest
T7 construct: purchased Millipore UK Limited (Dundee, UK) or Reaction Biology Corp. (Malvern, Pa.)

[9] = molecular target: T8, Met (Homo sapiens, UniProt P08581); experiment: Kinase profiler assay; assay type: biochemical; settings: 10 concentrations, 100 μM highest
T8 construct: purchased Millipore UK Limited (Dundee, UK) or Reaction Biology Corp. (Malvern, Pa.)

[10] = molecular target: T9, C-RAF (Homo sapiens, UniProt P04049); experiment: Kinase profiler assay; assay type: biochemical; settings: 10 concentrations, 100 μM highest
T9 construct: purchased Millipore UK Limited (Dundee, UK) or Reaction Biology Corp. (Malvern, Pa.)

[11] = system: HPDE, HMEC, HH and WI-38 cells; experiment: Western blot, cleaved PARP and caspase-3 in normal cells; settings: LLL12 5 μM or 10 μM, 24 hours
[12] = molecular target: T10, CDK6/CyclinD1 (Homo sapiens, UniProt Q00534); experiment: Kinase profiler assay; assay type: biochemical; settings: 10 concentrations, 100 μM highest
T10 construct: purchased Millipore UK Limited (Dundee, UK) or Reaction Biology Corp. (Malvern, Pa.)

[13] = molecular target: T11, Syk (Homo sapiens, UniProt P43405); experiment: Kinase profiler assay; assay type: biochemical; settings: 10 concentrations, 100 μM highest
T11 construct: purchased Millipore UK Limited (Dundee, UK) or Reaction Biology Corp. (Malvern, Pa.)

[14] = molecular target: T12, PDK1 (Homo sapiens, UniProt O15530); experiment: Kinase profiler assay; assay type: biochemical; settings: 10 concentrations, 100 μM highest
T12 construct: purchased Millipore UK Limited (Dundee, UK) or Reaction Biology Corp. (Malvern, Pa.)

[15] = molecular target: T13, Pyk2 (Homo sapiens, UniProt Q14289); experiment: Kinase profiler assay; assay type: biochemical; settings: 10 concentrations, 100 μM highest
T13 construct: purchased Millipore UK Limited (Dundee, UK) or Reaction Biology Corp. (Malvern, Pa.)

[16] = molecular target: T14, AKT1 (Homo sapiens, UniProt P31749); experiment: Kinase profiler assay; assay type: biochemical; settings: 10 concentrations, 100 μM highest
T14 construct: purchased Millipore UK Limited (Dundee, UK) or Reaction Biology Corp. (Malvern, Pa.)
T14 sequence (P31749 whole entry): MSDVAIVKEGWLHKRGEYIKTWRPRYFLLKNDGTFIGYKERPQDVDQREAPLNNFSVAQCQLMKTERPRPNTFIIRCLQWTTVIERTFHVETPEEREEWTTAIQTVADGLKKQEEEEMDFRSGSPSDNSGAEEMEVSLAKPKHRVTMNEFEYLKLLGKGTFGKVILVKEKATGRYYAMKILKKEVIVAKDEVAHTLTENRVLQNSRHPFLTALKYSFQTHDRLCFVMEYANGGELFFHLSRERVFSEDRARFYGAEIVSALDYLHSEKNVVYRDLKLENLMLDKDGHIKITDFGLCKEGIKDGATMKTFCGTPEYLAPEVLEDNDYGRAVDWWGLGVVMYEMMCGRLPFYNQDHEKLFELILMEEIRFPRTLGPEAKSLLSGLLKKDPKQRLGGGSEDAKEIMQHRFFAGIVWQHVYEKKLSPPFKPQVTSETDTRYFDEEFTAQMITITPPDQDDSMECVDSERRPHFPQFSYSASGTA

[17] = molecular target: T15, Yes (Homo sapiens, UniProt P07947); experiment: Kinase profiler assay; assay type: biochemical; settings: 10 concentrations, 100 μM highest
T15 construct: purchased Millipore UK Limited (Dundee, UK) or Reaction Biology Corp. (Malvern, Pa.)
T15 sequence (P07947 whole entry): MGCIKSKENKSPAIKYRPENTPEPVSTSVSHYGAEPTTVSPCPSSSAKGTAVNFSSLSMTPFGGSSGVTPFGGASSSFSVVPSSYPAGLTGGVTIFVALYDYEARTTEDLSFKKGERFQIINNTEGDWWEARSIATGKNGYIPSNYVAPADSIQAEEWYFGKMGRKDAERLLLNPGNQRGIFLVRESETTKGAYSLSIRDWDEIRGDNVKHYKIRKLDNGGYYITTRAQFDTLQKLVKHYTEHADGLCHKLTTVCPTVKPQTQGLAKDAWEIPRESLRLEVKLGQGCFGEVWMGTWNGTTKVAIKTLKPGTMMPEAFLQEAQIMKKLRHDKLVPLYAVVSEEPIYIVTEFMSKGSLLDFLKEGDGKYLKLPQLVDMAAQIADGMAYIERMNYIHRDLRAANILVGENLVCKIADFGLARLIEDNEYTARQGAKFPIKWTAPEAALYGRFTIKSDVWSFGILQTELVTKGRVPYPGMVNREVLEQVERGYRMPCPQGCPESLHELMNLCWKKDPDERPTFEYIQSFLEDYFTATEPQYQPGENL

[18] = molecular target: T16, EGFR (Homo sapiens, UniProt P00533); experiment: Kinase profiler assay; assay type: biochemical; settings: 10 concentrations, 100 μM highest
T16 construct: purchased Millipore UK Limited (Dundee, UK) or Reaction Biology Corp. (Malvern, Pa.)

[19] = molecular target: T17, C-Kit (Homo sapiens, UniProt P10721); experiment: Kinase profiler assay; assay type: biochemical; settings: 10 concentrations, 100 μM highest
T17 construct: purchased Millipore UK Limited (Dundee, UK) or Reaction Biology Corp. (Malvern, Pa.)

[20] = molecular target: T18, VEGFR1 (Homo sapiens, UniProt P17948); experiment: Kinase profiler assay; assay type: biochemical; settings: 10 concentrations, 100 μM highest
T18 construct: purchased Millipore UK Limited (Dundee, UK) and Reaction Biology Corp. (Malvern, Pa.)

[21] = molecular target: T19, mTOR (Homo sapiens, UniProt P42345); experiment: Kinase profiler assay; assay type: biochemical; settings: 10 concentrations, 100 μM highest
T19 construct: purchased Millipore UK Limited (Dundee, UK) or Reaction Biology Corp. (Malvern, Pa.)

[22] = molecular target: T20, CHK1 (Homo sapiens, UniProt O14757); experiment: Kinase profiler assay; assay type: biochemical; settings: 10 concentrations, 100 μM highest
T20 construct: purchased Millipore UK Limited (Dundee, UK) or Reaction Biology Corp. (Malvern, Pa.)
T20 sequence (O14757 whole entry): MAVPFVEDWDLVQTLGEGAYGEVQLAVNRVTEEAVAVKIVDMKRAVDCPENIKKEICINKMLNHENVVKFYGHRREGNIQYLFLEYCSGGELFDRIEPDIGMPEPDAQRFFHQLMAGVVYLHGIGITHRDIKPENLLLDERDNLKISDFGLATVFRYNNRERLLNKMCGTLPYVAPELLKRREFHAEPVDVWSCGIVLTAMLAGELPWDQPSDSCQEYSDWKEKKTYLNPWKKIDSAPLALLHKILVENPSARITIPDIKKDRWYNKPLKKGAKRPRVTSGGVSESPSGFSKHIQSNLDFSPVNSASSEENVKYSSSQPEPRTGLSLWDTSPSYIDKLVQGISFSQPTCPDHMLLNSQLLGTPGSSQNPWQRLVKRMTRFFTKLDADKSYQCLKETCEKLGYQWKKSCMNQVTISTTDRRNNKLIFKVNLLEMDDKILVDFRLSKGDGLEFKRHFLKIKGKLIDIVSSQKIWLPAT

[23] = molecular target: T21, Fyn (Homo sapiens, UniProt P06241); experiment: Kinase profiler assay; assay type: biochemical; settings: 10 concentrations, 100 μM highest
T21 construct: purchased Millipore UK Limited (Dundee, UK) or Reaction Biology Corp. (Malvern, Pa.)
T21 sequence (P06241 whole entry): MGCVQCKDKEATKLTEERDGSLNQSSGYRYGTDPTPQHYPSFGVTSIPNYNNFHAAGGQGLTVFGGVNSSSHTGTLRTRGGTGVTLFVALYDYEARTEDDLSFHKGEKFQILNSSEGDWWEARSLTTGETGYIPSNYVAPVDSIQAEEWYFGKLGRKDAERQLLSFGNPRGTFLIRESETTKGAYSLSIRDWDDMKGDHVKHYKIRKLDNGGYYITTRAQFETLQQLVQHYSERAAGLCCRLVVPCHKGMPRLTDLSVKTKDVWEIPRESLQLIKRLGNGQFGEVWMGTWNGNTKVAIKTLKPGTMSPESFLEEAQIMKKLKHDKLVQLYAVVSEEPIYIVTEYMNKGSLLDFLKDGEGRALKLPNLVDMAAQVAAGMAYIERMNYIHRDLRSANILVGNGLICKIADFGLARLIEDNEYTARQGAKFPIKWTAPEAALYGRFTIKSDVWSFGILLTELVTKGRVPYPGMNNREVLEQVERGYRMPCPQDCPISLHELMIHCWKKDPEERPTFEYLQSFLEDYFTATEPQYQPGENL

[24] = molecular target: T22, PAK1 (Homo sapiens, UniProt Q13153); experiment: Kinase profiler assay; assay type: biochemical; settings: 10 concentrations, 100 μM highest
T22 construct: purchased Millipore UK Limited (Dundee, UK) or Reaction Biology Corp. (Malvern, Pa.)

[25] = molecular target: T23, PKC-b (Homo sapiens, UniProt P05771); experiment: Kinase profiler assay; assay type: biochemical; settings: 10 concentrations, 100 μM highest
T23 construct: purchased Millipore UK Limited (Dundee, UK) or Reaction Biology Corp. (Malvern, Pa.)

[26] = molecular target: T24, c-SRC (Homo sapiens, UniProt P12931); experiment: Kinase profiler assay; assay type: biochemical; settings: 10 concentrations, 100 μM highest
T24 construct: purchased Millipore UK Limited (Dundee, UK) or Reaction Biology Corp. (Malvern, Pa.)

[27] = molecular target: T25, TAK1 (Homo sapiens, UniProt O43318); experiment: Kinase profiler assay; assay type: biochemical; settings: 10 concentrations, 100 μM highest
T25 construct: purchased Millipore UK Limited (Dundee, UK) or Reaction Biology Corp. (Malvern, Pa.)

[28] = system: PANC-1 pancreatic cancer cells; experiment: MTT cell viability assay; assay type: cell-based, human; settings: PANC-1, MTT, 72 hours, 10% FBS, read-out: half-maximal inhibitory concentration (IC50), cell viability
Protocol: (§1) STAT3 activation is important for tumor cell proliferation and survival.
(§2) The cells were incubated at 37° C. for a period of 72 hours. 3-(4,5-Dimethylthiazolyl)-2,5-diphenyltetrazolium bromide (MTT) viability assay was done according to manufacturer's protocol (Roche Diagnostics, Mannheim, Germany). […] Half-maximal inhibitory concentrations (IC50) were determined using Sigma Plot 9.0 Software (Systat Software Inc., San Jose, Calif.).

[29] = system: U373 glioblastoma cells; experiment: MTT cell viability assay; assay type: cell-based, human; settings: 72 hours, 10% FBS, read-out: half-maximal inhibitory concentration (IC50), cell viability
Protocol: as §1, §2

[30] = system: U87 glioblastoma cells; experiment: MTT cell viability assay; assay type: cell-based, human; settings: 72 hours, 10% FBS, read-out: half-maximal inhibitory concentration (IC50), cell viability
Protocol: as §1, §2

[31] = system: SK-BR-3 breast cancer cells; experiment: MTT cell viability assay; assay type: cell-based, human; settings: SK-BR-3, MTT, 72 hours, 10% FBS, read-out: half-maximal inhibitory concentration (IC50), cell viability
Protocol: as §1, §2

[32] = system: HPAC pancreatic cancer cells; experiment: MTT cell viability assay; assay type: cell-based, human; settings: 72 hours, 10% FBS, read-out: half-maximal inhibitory concentration (IC50), cell viability
Protocol: as §1, §2

[33] = system: MDA-MB-231 breast cancer cells; experiment: MTT cell viability assay; assay type: cell-based, human; settings: MDA-MB-231, MTT, 72 hours, 10% FBS, read-out: half-maximal inhibitory concentration (IC50), cell viability
Protocol: as §1, §2

[34] = system: ALDH^+ subpopulation of SK-BR-3, MDA-MB-231, and SUM159; experiment: Tumorsphere culture of ALDH+ cells; assay type: cell-based, human; settings: 2.5-10 μmol/L, 10 to 15 days
Protocol: Tumorsphere culture was performed as previously described (4). ALDH^+ and ALDH^+/CD44^+/CD24^− cells were plated as single cells in ultra-low attachment six-well plates at a density of 50,000 viable cells/well. […] Tumorsphere growth was observed under a microscope 10 to 15 days later.

[35] = system: ALDH^+ subpopulation of MDA-MB-231, SUM159, and SK-BR3 cells; experiment: MTT cell viability assay of ALDH+ cells; assay type: cell-based, human; settings: 1 to 10 μmol/L, 72 hours
Protocol: The ALDH^+ subpopulation of breast cancer cells was seeded in 96-well plates (3,000 cells/well) in triplicates in a serum-free mammary epithelial basal medium. […] MTT (Thiazolyl Blue Tetrazolium Bromide, Sigma-Aldrich) assay was used to determine the cell viability.

[36] = system: ALDH^+ subpopulation of MDA-MB-231, SUM159, and SK-BR-3 breast cancer cells; experiment: ALDEFLUOR assay, percentage of ALDH+ subpopulation; assay type: cell-based, human; settings: 10 μM, 24 hours
Source text: The ALDEFLUOR kit (StemCell Technologies) was used to isolate the population with high ALDH enzymatic activity as known. […] For each sample, an aliquot of cells was stained under identical conditions with […] diethylaminobenzaldehyde (DEAB), a specific ALDH inhibitor, as a ALDH^− control. Anti-human PE-CD24 and PE-Cy5-CD44 antibody (BioLegend) were used for CD44/CD24 identification and to separate ALDH^+/CD44^+/CD24^− and ALDH^−/CD44^+/CD24^+ cells when combine with ALDH staining. Analysis was performed using a FACStarPLUS (Becton Dickinion) flow cytometer.

[37] = system: ALDH^− cells; experiment: Effects on ALDH- cells; assay type: cell-based, human
[38] = molecular target: STAT3 phosphorylation in ALDH^+ subpopulation of MDA-MB-231, SUM159, and SK-BR-3 (Homo sapiens, UniProt P40763); experiment: Western blot of ALDH+ cells; assay type: cell-based; settings: LLL12 5 μmol/L, 24 hours
Protocol: ALDH^+ and ALDH^- subpopulations, or ALDH^+/CD44^+/CD24^- and ALDH^-/CD44^+/CD24^+ subpopulations of breast cancer cells were separated by flow cytometer. After sorting, ALDH^+ and ALDH^+/CD44^+/CD24^- stem cells were cultured in serum-free stem cell medium in ultra-low attachment six-well plates (Corning) to maintain cancer stem cell characteristics. ALDH^-, ALDH^-/CD44^+/CD24^+ cells and unseperated cells were cultured in regular medium and replaced with identical stem cell medium for three days before being harvested.

## NS(=O)(=O)c1cccc2c1C(=O)c1cccc(O)c1C2=O [LLL12]
[1]
  IC50: > 100 µM
[2]
  IC50: > 100 µM
[3]
  IC50: > 100 µM
[4]
  decrease in colony formation compared to the DMSO control: over 95%
[5]
  IC50: > 100 µM
[6]
  IC50: > 100 µM
[7]
  IC50: 77.9 µM
[8]
  IC50: > 100 µM
[9]
  IC50: > 100 µM
[10]
  IC50: > 100 µM
[11]
  cleaved PARP or caspase-3 in cells without elevated STAT3 phosphorylation: did not induce cleaved PARP or caspase-3
[12]
  IC50: > 100 µM
[13]
  IC50: > 100 µM
[14]
  IC50: > 100 µM
[15]
  IC50: > 100 µM
[16]
  IC50: > 100 µM
[17]
  IC50: > 100 µM
[18]
  IC50: > 100 µM
[19]
  IC50: > 100 µM
[20]
  IC50: > 100 µM
[21]
  IC50: > 100 µM
[22]
  IC50: > 100 µM
[23]
  IC50: > 100 µM
[24]
  IC50: > 100 µM
[25]
  IC50: > 100 µM
[26]
  IC50: > 100 µM
[27]
  IC50: > 100 µM

## Cc1ccc(S(=O)(=O)OCC(=O)Nc2ccc(C(=O)O)c(O)c2)cc1 [S3I-201]
[28]
  IC50: > 100 µM
[29]
  IC50: 52.5 µM
[30]
  IC50: 55.1 µM
[31]
  IC50: > 100 µM
[32]
  IC50: > 100 µM
[33]
  IC50: > 100 µM

## O=[N+]([O-])c1ccc2c(c1)S(=O)(=O)C=C2 [Stattic]
[34]
  tumorsphere forming capacity: can inhibit tumorsphere forming capacity
[35]
  cell viability of the ALDH^+ subpopulation: can inhibit cell viability
[36]
  ALDH^+ subpopulation percentage: decreased the percentage of ALDH^+ subpopulation
[37]
  effects on ALDH^− cells: inhibitory effects
[38]
  STAT3 phosphorylation in ALDH^+ cells: reduces STAT3 phosphorylation

## C[C@H](NC(=O)/C(C#N)=C/c1cccc(Br)n1)c1ccccc1 [WP1066]
[28]; Homo sapiens
  IC50: 5.12 µM
[29]; Homo sapiens, U373 MG
  IC50: 5.16 µM
[31]; Homo sapiens
  IC50: 3.31 µM
[32]; Homo sapiens
  IC50: 2.52 µM
[33]; Homo sapiens
  IC50: 7.48 µM
